Assay results from patent US20240208961A1, “EIF4E INHIBITORS AND USES THEREOF” (PIC Therapeutics, Inc., priority 2022, published 2024).
Where “and” joins values, the source holds several entries; their conditions need not be identical. Equal entries are not always repeated. Where two headings read alike, the source gives them in different places.

Assays:
MM.1R = test: Cell viability assay, suspension cell line, 5 day Alamar Blue (Example 8): MM.1R; format: cell-based; conditions: 120 h, Multiple Myeloma (Steroid Resistant) Cancer Cell
[1] = Pharmacokinetic studies of certain compounds in female Balb/c mice (Example 5); format: in vivo
Outline: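 Female Balb/c mice (N=9) were fasted overnight and given compound PO as a suspension in 1% CMC/0.2% Tween 80 or IV in 5% DMSO/5% Solutol HS15/90% saline. Facial-vein plasma was taken from 0.083 to 24 h and assayed by LC-MS. Parameters are non-compartmental, and F was based on AUCINF or AUClast.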

MM.1S = test: Cell viability assay, suspension cell line, 5 day Alamar Blue (Example 8): MM.1S; format: cell-based; conditions: Homo sapiens, MM1.S, 120 h, Multiple Myeloma (Steroid Sensitive) Cancer Cell
[2] = I-8 IV 1 mg/kg, 8 hr, BQL = below quantifiable limit of 3.00 ng/mL
[3] = I-8 IV 1 mg/kg, 24 hr, BQL = below quantifiable limit of 3.00 ng/mL

IC50 (MM.1R): ≤ 1000 nM | Plasma concentration Individual ([1]; I-8 IV 1 mg/kg, 0.083 hr, 1 mg/kg): 2020 ng/mL and 1630 ng/mL | Plasma concentration Individual ([1]; I-8 IV 1 mg/kg, 0.25 hr, 1 mg/kg): 632 ng/mL and 700 ng/mL | Plasma concentration Individual ([1]; I-8 IV 1 mg/kg, 0.5 hr, 1 mg/kg): 309 ng/mL and 296 ng/mL | Plasma concentration Individual ([1]; I-8 IV 1 mg/kg, 1 hr, 1 mg/kg): 66.5 ng/mL and 97.1 ng/mL | Plasma concentration Individual ([1]; I-8 IV 1 mg/kg, 2 hr, 1 mg/kg): 25.8 ng/mL and 16.3 ng/mL | Plasma concentration Individual ([1]; I-8 IV 1 mg/kg, 4 hr, 1 mg/kg): 7.83 ng/mL and 8.03 ng/mL | Plasma concentration Individual [1, 2]: BQL | Plasma concentration Mean [1, 2]: BQL | Plasma concentration Individual [1, 3]: BQL | Plasma concentration Mean [1, 3]: BQL | F ([1]; I-8 PO 50 mg/kg vs IV 1 mg/kg): 27.8% | Plasma concentration Individual ([1]; I-8 PO 50 mg/kg, 0.083 hr, 50 mg/kg): 482 ng/mL and 270 ng/mL | Plasma concentration Individual ([1]; I-8 PO 50 mg/kg, 0.25 hr, 50 mg/kg): 1250 ng/mL and 2030 ng/mL | Plasma concentration Individual ([1]; I-8 PO 50 mg/kg, 0.5 hr, 50 mg/kg): 1900 ng/mL and 3970 ng/mL and 4110 ng/mL | Plasma concentration Individual ([1]; I-8 PO 50 mg/kg, 1 hr, 50 mg/kg): 3600 ng/mL and 2260 ng/mL | Plasma concentration Individual ([1]; I-8 PO 50 mg/kg, 2 hr, 50 mg/kg): 2510 ng/mL and 1700 ng/mL | Plasma concentration Individual ([1]; I-8 PO 50 mg/kg, 4 hr, 50 mg/kg): 536 ng/mL and 958 ng/mL | Plasma concentration Individual ([1]; I-8 PO 50 mg/kg, 8 hr, 50 mg/kg): 127 ng/mL and 134 ng/mL | Plasma concentration Individual ([1]; I-8 PO 50 mg/kg, 24 hr, 50 mg/kg): 5.77 ng/mL and 14.0 ng/mL and 3.49 ng/mL | concentration at 0.083 hr ([1]; female, Balb/c, mouse, plasma, iv, 1 mg/kg, I-8 IV 1 mg/kg, 0.083 hr, read-out: Plasma concentration Individual): 1780 ng/mL | concentration at 0.083 hr ([1]; female, Balb/c, mouse, plasma, iv, 1 mg/kg, I-8 IV 1 mg/kg, 0.083 hr, read-out: Plasma concentration Mean): 1810 ng/mL | concentration at 0.25 hr ([1]; female, Balb/c, mouse, plasma, iv, 1 mg/kg, I-8 IV 1 mg/kg, 0.25 hr, read-out: Plasma concentration Individual): 847 ng/mL | concentration at 0.25 hr ([1]; female, Balb/c, mouse, plasma, iv, 1 mg/kg, I-8 IV 1 mg/kg, 0.25 hr, read-out: Plasma concentration Mean): 726 ng/mL | concentration at 0.5 hr ([1]; female, Balb/c, mouse, plasma, iv, 1 mg/kg, I-8 IV 1 mg/kg, 0.5 hr, read-out: Plasma concentration Individual): 232 ng/mL | concentration at 0.5 hr ([1]; female, Balb/c, mouse, plasma, iv, 1 mg/kg, I-8 IV 1 mg/kg, 0.5 hr, read-out: Plasma concentration Mean): 279 ng/mL | concentration at 1 hr ([1]; female, Balb/c, mouse, plasma, iv, 1 mg/kg, I-8 IV 1 mg/kg, 1 hr, read-out: Plasma concentration Individual): 85.2 ng/mL | concentration at 1 hr ([1]; female, Balb/c, mouse, plasma, iv, 1 mg/kg, I-8 IV 1 mg/kg, 1 hr, read-out: Plasma concentration Mean): 82.9 ng/mL | concentration at 2 hr ([1]; female, Balb/c, mouse, plasma, iv, 1 mg/kg, I-8 IV 1 mg/kg, 2 hr, read-out: Plasma concentration Individual): 24.8 ng/mL | concentration at 2 hr ([1]; female, Balb/c, mouse, plasma, iv, 1 mg/kg, I-8 IV 1 mg/kg, 2 hr, read-out: Plasma concentration Mean): 22.3 ng/mL | concentration at 4 hr ([1]; female, Balb/c, mouse, plasma, iv, 1 mg/kg, I-8 IV 1 mg/kg, 4 hr, read-out: Plasma concentration Individual): 10 ng/mL | concentration at 4 hr ([1]; female, Balb/c, mouse, plasma, iv, 1 mg/kg, I-8 IV 1 mg/kg, 4 hr, read-out: Plasma concentration Mean): 8.62 ng/mL | concentration at 0.083 h ([1]; female, Balb/c, mouse, plasma, po, 50 mg/kg, I-8 PO 50 mg/kg, 0.083 hr, read-out: Plasma concentration Individual): 247 ng/mL | concentration at 0.083 h ([1]; female, Balb/c, mouse, plasma, po, 50 mg/kg, I-8 PO 50 mg/kg, 0.083 hr, read-out: Plasma concentration Mean): 333 ng/mL | concentration at 0.25 h ([1]; female, Balb/c, mouse, plasma, po, 50 mg/kg, I-8 PO 50 mg/kg, 0.25 hr, read-out: Plasma concentration Individual): 1220 ng/mL | concentration at 0.25 h ([1]; female, Balb/c, mouse, plasma, po, 50 mg/kg, I-8 PO 50 mg/kg, 0.25 hr, read-out: Plasma concentration Mean): 1500 ng/mL | concentration at 0.5 hr ([1]; female, Balb/c, mouse, plasma, po, 50 mg/kg, I-8 PO 50 mg/kg, 0.5 hr, read-out: Plasma concentration Mean): 3330 ng/mL | concentration at 1 h ([1]; female, Balb/c, mouse, plasma, po, 50 mg/kg, I-8 PO 50 mg/kg, 1 hr, read-out: Plasma concentration Individual): 1810 ng/mL | concentration at 1 h ([1]; female, Balb/c, mouse, plasma, po, 50 mg/kg, I-8 PO 50 mg/kg, 1 hr, read-out: Plasma concentration Mean): 2560 ng/mL | concentration at 2 h ([1]; female, Balb/c, mouse, plasma, po, 50 mg/kg, I-8 PO 50 mg/kg, 2 hr, read-out: Plasma concentration Individual): 1670 ng/mL | concentration at 2 h ([1]; female, Balb/c, mouse, plasma, po, 50 mg/kg, I-8 PO 50 mg/kg, 2 hr, read-out: Plasma concentration Mean): 1960 ng/mL | concentration at 4 h ([1]; female, Balb/c, mouse, plasma, po, 50 mg/kg, I-8 PO 50 mg/kg, 4 hr, read-out: Plasma concentration Individual): 530 ng/mL | concentration at 4 h ([1]; female, Balb/c, mouse, plasma, po, 50 mg/kg, I-8 PO 50 mg/kg, 4 hr, read-out: Plasma concentration Mean): 675 ng/mL | concentration at 8 h ([1]; female, Balb/c, mouse, plasma, po, 50 mg/kg, I-8 PO 50 mg/kg, 8 hr, read-out: Plasma concentration Individual): 155 ng/mL | concentration at 8 h ([1]; female, Balb/c, mouse, plasma, po, 50 mg/kg, I-8 PO 50 mg/kg, 8 hr, read-out: Plasma concentration Mean): 139 ng/mL | concentration at 24 h ([1]; female, Balb/c, mouse, plasma, po, 50 mg/kg, I-8 PO 50 mg/kg, 24 hr, read-out: Plasma concentration Mean): 7.75 ng/mL | AUC(0-inf) ([1]; mouse, plasma, I-8 IV 1 mg/kg): 717 ng·h/mL | AUC(0-t) ([1]; mouse, plasma, I-8 IV 1 mg/kg): 705 ng·h/mL | C0 ([1]; mouse, plasma, I-8 IV 1 mg/kg): 2850 ng/mL | MRT inf ([1]; mouse, plasma, I-8 IV 1 mg/kg): 28.3 min | MRT last ([1]; mouse, plasma, I-8 IV 1 mg/kg): 23.2 min | clearance ([1]; mouse, plasma, I-8 IV 1 mg/kg): 23.2 mL/min/kg | half-life ([1]; mouse, plasma, I-8 IV 1 mg/kg): 58.2 min | Vd ([1]; mouse, plasma, I-8 IV 1 mg/kg, read-out: Vss): 0.657 L/kg | AUC(0-inf) ([1]; mouse, plasma, I-8 PO 50 mg/kg): 9970 ng·h/mL | AUC(0-t) ([1]; mouse, plasma, I-8 PO 50 mg/kg): 9930 ng·h/mL | Cmax ([1]; mouse, plasma, I-8 PO 50 mg/kg): 3330 ng/mL | MRT inf ([1]; mouse, plasma, I-8 PO 50 mg/kg): 182 min | MRT last ([1]; mouse, plasma, I-8 PO 50 mg/kg): 176 min | Tmax ([1]; mouse, plasma, I-8 PO 50 mg/kg): 30 min | half-life ([1]; mouse, plasma, I-8 PO 50 mg/kg): 197 min | IC50 (MM.1S): ≤ 1000 nM
Compound: CC(C)Cc1sc(Nc2ncc(-c3cccs3)cc2C(=O)O)nc1C1=CCCC1 [Compound I-8]
